Key:
Details in all cases: 72 h
[1] = system: Caco-2; experiment: cell viability relative to DMSO; higher = less toxic
[2] = system: Calu-3; experiment: as above
[3] = system: U2OS; experiment: as above
[4] = system: Vero E6; experiment: as above
[5] = system: HepG2; experiment: as above
[6] = system: Caco-2; experiment: relative viability EC50 (midpoint between 100% and the lowest measured viability); higher = less toxic
[7] = system: Calu-3; experiment: as above
[8] = system: U2OS; experiment: as above
[9] = system: Vero E6; experiment: as above
[10] = system: HepG2; experiment: as above
[11] = system: Caco-2; experiment: drug sensitivity score (DSS) for viability; higher = more toxic; extreme values may be limits of the assay
[12] = system: Calu-3; experiment: as above
[13] = system: U2OS; experiment: as above
[14] = system: Vero E6; experiment: as above
[15] = system: HepG2; experiment: as above

Row | Compound | cell viability ([1]; 1 nM) | cell viability ([1]; 10 nM) | cell viability ([1]; 100 nM) | cell viability ([1]; 1000 nM) | cell viability ([1]; 10000 nM) | cell viability ([2]; 1 nM) | cell viability ([2]; 10 nM) | cell viability ([2]; 100 nM) | cell viability ([2]; 1000 nM) | cell viability ([2]; 10000 nM) | cell viability ([3]; 1 nM) | cell viability ([3]; 10 nM) | cell viability ([3]; 100 nM) | cell viability ([3]; 1000 nM) | cell viability ([3]; 10000 nM) | cell viability ([4]; 1 nM) | cell viability ([4]; 10 nM) | cell viability ([4]; 100 nM) | cell viability ([4]; 1000 nM) | cell viability ([4]; 10000 nM) | cell viability ([5]; 1 nM) | cell viability ([5]; 10 nM) | cell viability ([5]; 100 nM) | cell viability ([5]; 1000 nM) | cell viability ([5]; 10000 nM) | relative viability EC50 [6] | relative viability EC50 [7] | relative viability EC50 [8] | relative viability EC50 [9] | relative viability EC50 [10] | drug sensitivity score [11] | drug sensitivity score [12] | drug sensitivity score [13] | drug sensitivity score [14] | drug sensitivity score [15]
1 | CC(=O)NCC(=O)N1[C@@H]2CC[C@H]1c1ccc(Nc3ncc(C(F)(F)F)c(NC4CCC4)n3)cc12 | 95.9% | 89.2% | 101% | 79.3% | 40.7% | 101% | 97.7% | 99.4% | 121% | 83% | 98.6% | 97.4% | 94.4% | 67.3% | 2.9% | 92.6% | 98.6% | 96.6% | 82.1% | 46% | 93.8% | 99.6% | 84.6% | 62.4% | 3.4% | 1.28 µM | > 10 µM | 1.37 µM | 1.39 µM | 1.27 µM | 6.2 | 0.1 | 9.6 | 5.2 | 9.7
2 | CC(C)OC(=O)c1cc2c(OC[C@@H](O)CNC(C)(C)C)cccc2[nH]1 | 92.3% | 93% | 105% | 89.5% | 103% | 114% | 102% | 91.6% | 108% | 91.3% | 96.1% | 99.3% | 96.1% | 98.3% | 91.9% | 101% | 102% | 99.6% | 93.4% | 94.2% | 98.2% | 103% | 102% | 95.7% | 90.4% | > 10 µM | > 10 µM | > 10 µM | > 10 µM | > 10 µM | 0 | 0 | 0 | 0 | 0
3 | CC(C)[C@H](NS(=O)(=O)c1ccc(-c2ccc(Br)cc2)cc1)C(=O)O | 96.3% | 86.2% | 93.5% | 92.6% | 89.8% | 106% | 102% | 91.4% | 104% | 92.9% | 101% | 97.5% | 99.5% | 96.4% | 102% | 93.2% | 95.9% | 87.7% | 92.2% | 102% | 98.3% | 109% | 87.8% | 110% | 110% | > 10 µM | > 10 µM | > 10 µM | > 10 µM | > 10 µM | 0 | 0 | 0 | 0 | 0
4 | CC(CNS(=O)(=O)C(C)C)c1ccc(-c2ccc(C#N)cc2)cc1 (stereo not drawn) | 98% | 106% | 97.7% | 104% | 80.8% | 93.8% | 97.6% | 102% | 108% | 90.4% | 103% | 102% | 99.2% | 101% | 85.8% | 109% | 99.9% | 106% | 97.7% | 98.6% | 111% | 117% | 104% | 98.9% | 30.5% | > 10 µM | > 10 µM | > 10 µM | > 10 µM | 3.06 µM | 0.4 | 0 | 0.1 | 0 | 4
5 | C[C@H](NC(=O)CNC(=O)c1cccc(Cl)c1)c1ccccc1 | 100% | 102% | 96.6% | 100% | 102% | 91.2% | 95.1% | 96.3% | 108% | 90.8% | 101% | 96.8% | 99.7% | 98.1% | 101% | 103% | 96.2% | 96.4% | 104% | 99.1% | 102% | 107% | 98.8% | 98.6% | 101% | > 10 µM | > 10 µM | > 10 µM | > 10 µM | > 10 µM | 0 | 0 | 0 | 0 | 0
6 | Cc1c[nH]c(=O)n(CCCN2CCN(c3ccccc3OCC(F)(F)F)CC2)c1=O | – | – | – | – | – | 90.5% | 99% | 99.1% | 96.6% | 87.4% | 101% | 102% | 100% | 101% | 102% | 102% | 96.2% | 99.2% | 98.7% | 105% | 98.7% | 96.2% | 95.9% | 98.2% | 103% | – | > 10 µM | > 10 µM | > 10 µM | > 10 µM | – | 0.3 | 0 | 0 | 0
7 | Cc1ccc(S(=O)(=O)c2ccc([N+](=O)[O-])o2)cc1 | 97.1% | 96.6% | 105% | 87.6% | 0% | 98% | 89.7% | 101% | 89.9% | 0% | 97.5% | 95.1% | 109% | 72.4% | 0% | 94.6% | 99.1% | 97.9% | 98.5% | -0.1% | 84.3% | 100% | 102% | 86.7% | 0% | 2.16 µM | 2.33 µM | 1.47 µM | 3.06 µM | 2.09 µM | 7.6 | 7.2 | 9.6 | 5.8 | 7.8
8 | Cn1ncc2c(N3CCOCC3)nc(-c3cccc(O)c3)nc21 | 99.9% | 108% | 94.5% | 61.5% | 25.2% | 86.3% | 102% | 83.7% | 79.1% | 24.5% | 98.8% | 99.6% | 99.3% | 90.6% | 28.9% | 100% | 102% | 98.9% | 78% | 30.9% | 100% | 101% | 111% | 95.6% | 19.8% | 0.938 µM | 1.64 µM | 2.1 µM | 1.35 µM | 2.74 µM | 8.7 | 6.7 | 5.5 | 7 | 5.1
9 | Ic1cncc(OC[C@@H]2CCN2)c1 | 102% | 97.2% | 94% | 100% | 108% | 98.4% | 98.4% | 102% | 97% | 102% | 92.1% | 102% | 96.7% | 99.5% | 106% | 97.4% | 92.7% | 96.6% | 95.3% | 102% | 94% | 94% | 99.4% | 98% | 105% | > 10 µM | > 10 µM | > 10 µM | > 10 µM | > 10 µM | 0 | 0 | 0 | 0 | 0
10 | NC(=O)c1ccc(-c2nc(-c3ccccn3)c(-c3ccc4c(c3)OCO4)[nH]2)cc1 | 89.3% | 106% | 92.5% | 106% | 101% | 92.2% | 95% | 91.9% | 110% | 103% | 91.2% | 96.6% | 96% | 97.1% | 92.4% | 98.3% | 92.4% | 96.1% | 97.8% | 105% | 107% | 93.6% | 103% | 96% | 83.9% | > 10 µM | > 10 µM | > 10 µM | > 10 µM | > 10 µM | 0 | 0 | 0 | 0 | 0.7
11 | O=C(NC1CCOCC1)c1ccc(-c2cc(-c3c[nH]nc3-c3ccccn3)ccn2)cc1 | 91% | 97.2% | 100% | 95.7% | 93.9% | 101% | 120% | 103% | 99.6% | 108% | 98.2% | 98.4% | 100% | 94.4% | 92.2% | 93.4% | 103% | 98.8% | 107% | 102% | 96.2% | 99.9% | 94.8% | 104% | 93.8% | > 10 µM | > 10 µM | > 10 µM | > 10 µM | > 10 µM | 0 | 0 | 0 | 0 | 0
12 | O=C(NCc1ccncc1)C12CC3CC(C1)CC(c1ccc(Cl)cc1)(C3)C2 | 99.6% | 94.9% | 98.6% | 96% | 92.9% | 104% | 100% | 89% | 92.2% | 89.3% | 97.4% | 99.2% | 101% | 97.8% | 93.5% | 102% | 104% | 104% | 105% | 89.3% | 96.7% | 107% | 105% | 98% | 93.7% | > 10 µM | > 10 µM | > 10 µM | > 10 µM | > 10 µM | 0 | 0.5 | 0 | 0 | 0
13 | O=C(O)c1cc(C(=O)O)c(C(=O)N(Cc2cccc(Oc3ccccc3)c2)[C@H]2CCCc3ccccc32)cc1C(=O)O | 106% | 99.1% | 90.4% | 99.8% | 103% | 102% | 98.8% | 103% | 104% | 106% | 102% | 94.4% | 99.4% | 91.3% | 109% | 98.2% | 102% | 96.9% | 98.9% | 102% | 98.5% | 106% | 102% | 107% | 98.4% | > 10 µM | > 10 µM | > 10 µM | > 10 µM | > 10 µM | 0 | 0 | 0 | 0 | 0
14 | O=C(c1c(O)nc2cc(Cl)ccc2c1O)C1CC1 | 94.7% | 91.3% | 90.1% | 93.5% | 98.4% | 96.5% | 88.1% | 106% | 97.1% | 96.5% | 99.9% | 98.6% | 102% | 96% | 98.1% | 90.4% | 98.6% | 90.1% | 95.9% | 109% | 97.7% | 112% | 89.6% | 102% | 104% | > 10 µM | > 10 µM | > 10 µM | > 10 µM | > 10 µM | 0 | 0 | 0 | 0 | 0

Source: the supplement of paper PMC13380429
